What was measured:
[1] = system: AMBEL (Ragweed, Common); assay: Postemergence herbicidal evaluation; assay type: in vivo, Ambrosia artemisifolia
Experimental: (§1) In the tests, seedling plants are grown in jiffy flats for about two weeks. The test compounds are dispersed in 50/50 acetone/water mixtures containing 0.5% TWEEN®20, a polyoxyethylene sorbitan monolaurate surfactant of Atlas Chemical Industries, in sufficient quantities to provide the equivalent of about 0.0156 kg to 0.500 kg per hectare of active compound when applied to the plants through a spray nozzle operating at 40 psi for a predetermined time. After spraying, the plants are placed on greenhouse benches and are cared for in accordance with conventional greenhouse procedures. From four to five weeks after treatment, the seedling plants are examined and rated according to the rating system set forth below. Where more than one test is involved for a given compound, the data are averaged.
(§2) Plant species employed in these evaluations are reported by header abbreviation, common name and scientific name.
(§3) Results of herbicide evaluation are expressed on a rating scale (0-9). The scale is based upon a visual observation of plant stand, vigor, malformation, size, chlorosis and overall plant appearance as compared with a control.

[2] = system: MOOVA (Monochoria); assay: Postemergence weed control under flooded paddy conditions; assay type: in vivo, Monochoria vaginalis; conditions: postemergence weeds, 3-4 weeks after treatment
Text: as §3
(§4) Plastic containers containing weeds which are 3 to 5 cm tall and rice seedlings at the 1.5 to 2.5 leaf stage are flooded with water. The water is maintained at 1.5 to 3 cm above the soil surface for the duration of the experiment. Test compounds are applied as aqueous/ acetone mixtures 50/50 v/v directly into the flood water to provide the equivalent of about 0.0313 to 0.500 kg/ha of active ingredient. The treated containers are placed on greenhouse benches and cared for in accordance with conventional greenhouse procedures. Three to four weeks after treatment, the test is terminated and each container is examined and herbicidal effect rated according to the rating system provided in Example 37. The compounds evaluated are reported by compound number given in Example 37.

[3] = system: CYPIR (Rice Flatsedge); assay: Preemergence weed control under flooded paddy conditions; assay type: in vivo, Cyperus iria; conditions: rated 3-4 weeks after treatment
Experimental: as §3
(§5) Preemergence herbicidal activity under flooded paddy conditions is determined as follows: plant seeds or propagating organs are planted in the top 0.5 cm of silt loam soil in 32 oz. plastic containers with a diameter of 10.5 cm and no drainage holes. Water is added to these containers and maintained at 1.5 to 3 cm above the soil surface for the duration of the experiment. The test compounds are applied as aqueous/acetone mixtures 50/50 v/v pipetted directly into the flood water to give the equivalent of about 0.0313 to 0.500 kg/ha of active ingredient. The treated containers are placed on greenhouse benches and cared for in accordance with conventional greenhouse procedures. Three to four weeks after treatment, the test is terminated and each container is examined and herbicidal effect rated according to the rating system provided in Example 37. The compounds evaluated are reported by compound number given in Example 37.
(§6) Plant species employed in this example are reported by header abbreviation, common name and scientific name.

[4] = system: ZEAMX (Corn, Field); assay: Postemergence herbicidal evaluation; assay type: in vivo, Zea mays
Experimental: as §1, §2, §3

[5] = system: SAGPY (Arrowhead (Pygmaea)); assay: Preemergence weed control under flooded paddy conditions; assay type: in vivo, Sagittaria pygmaea; conditions: rated 3-4 weeks after treatment
Experimental: as §3, §5, §6

[6] = system: IPOHE (Morningglory, Ivyleaf); assay: Postemergence herbicidal evaluation; assay type: in vivo, Ipomoea hederacea
Experimental: as §1, §2, §3

[7] = system: CHEAL (Lambsquarters, Common); assay: Postemergence herbicidal evaluation; assay type: in vivo, Chenopodium album
Experimental: as §1, §2, §3

[8] = system: TRZAWR (Wheat, Winter, cv Riband); assay: Postemergence herbicidal evaluation; assay type: in vivo, Triticum aestivum
Experimental: as §1, §2, §3

[9] = system: CYPIR (Rice Flatsedge); assay: Postemergence weed control under flooded paddy conditions; assay type: in vivo, Cyperus iria; conditions: postemergence weeds, 3-4 weeks after treatment
Text: as §3, §4

[10] = system: ECHORC (Watergrass (Calif.)); assay: as above; assay type: in vivo, Echinochloa oryzoides; conditions: postemergence weeds, 3-4 weeks after treatment
Text: as §3, §4

[11] = system: CYPSE (Flatsedge); assay: as above; assay type: in vivo, Cyperus serotinus; conditions: postemergence weeds, 3-4 weeks after treatment
Text: as §3, §4

[12] = system: ORYSAT (Rice, Tebonnet); assay: Postemergence herbicidal evaluation; assay type: in vivo, Oryza sativa, (L.) Tebonnet
Experimental: as §1, §2, §3

[13] = system: ABUTH (Velvetleaf); assay: Postemergence herbicidal evaluation; assay type: in vivo, Abutilon theophrasti
Experimental: as §1, §2, §3

[14] = system: GALAP (Galium); assay: Postemergence herbicidal evaluation; assay type: in vivo, Galium aparine
Experimental: as §1, §2, §3

[15] = system: GLXMAW (Soybean, Williams); assay: Postemergence herbicidal evaluation; assay type: in vivo, Glycine max, (L.) Merr. cv Williams
Experimental: as §1, §2, §3

[16] = system: CYPSE (Flatsedge); assay: Preemergence weed control under flooded paddy conditions; assay type: in vivo, Cyperus serotinus; conditions: rated 3-4 weeks after treatment
Experimental: as §3, §5, §6

[17] = system: SAGPY (Arrowhead (Pygmaea)); assay: Postemergence weed control under flooded paddy conditions; assay type: in vivo, Sagittaria pygmaea; conditions: postemergence weeds, 3-4 weeks after treatment
Text: as §3, §4

[18] = system: ECHORC (Watergrass (Calif.)); assay: Preemergence weed control under flooded paddy conditions; assay type: in vivo, Echinochloa oryzoides; conditions: rated 3-4 weeks after treatment
Experimental: as §3, §5, §6

[19] = system: MOOVA (Monochoria); assay: as above; assay type: in vivo, Monochoria vaginalis; conditions: rated 3-4 weeks after treatment
Experimental: as §3, §5, §6

[20] = system: CASOB (Sicklepod); assay: Postemergence herbicidal evaluation; assay type: in vivo, Cassia obtusifolia
Experimental: as §1, §2, §3

[21] = system: ECHCG (Barnyardgrass); assay: Postemergence herbicidal evaluation; assay type: in vivo, Echinochloa crus-galli
Experimental: as §1, §2, §3

[22] = system: SETVI (Foxtail, Green); assay: Postemergence herbicidal evaluation; assay type: in vivo, Setaria viridis
Experimental: as §1, §2, §3

CCOC(=O)CN1C(=O)C(CC(N)=O)S/C1=N/c1cc(-n2c(=O)cc(C(F)(F)F)n(C)c2=O)c(F)cc1Cl (stereo not shown) [Compound 56, Ethyl 5-(carbamoylmethyl)-2-{{2-chloro-5-[3,6-dihydro-3-methyl-2,6-dioxo-4-(trifluoromethyl)-1(2H)-pyrimidinyl]-4-fluorophenyl}imino}-4-oxo-3-thiazolidineacetate]
8.0: Postemergence herbicidal rating GLXMAW ([15]; Rate 0.0630 kg/ha)
5.5: Postemergence herbicidal rating ZEAMX ([4]; Rate 0.0315 kg/ha)
6.0: Herbicidal rating MOOVA ([2]; rate 0.0313 kg/ha) | Herbicidal rating MOOVA ([2]; rate 0.0625 kg/ha) | Postemergence herbicidal rating GALAP ([14]; Rate 0.0315 kg/ha) | Herbicidal rating MOOVA ([19]; 0.0313 kg/ha) | Herbicidal rating MOOVA ([19]; 0.0625 kg/ha) | Postemergence herbicidal rating SETVI ([22]; Rate 0.0158 kg/ha) | Postemergence herbicidal rating SETVI ([22]; Rate 0.0315 kg/ha)
1.5: Postemergence herbicidal rating ORYSAT ([12]; Rate 0.0158 kg/ha)
4.0: Postemergence herbicidal rating TRZAWR ([8]; Rate 0.0158 kg/ha) | Postemergence herbicidal rating CASOB ([20]; Rate 0.0158 kg/ha) | Postemergence herbicidal rating CASOB ([20]; Rate 0.0315 kg/ha)
7.0: Postemergence herbicidal rating GLXMAW ([15]; Rate 0.0158 kg/ha) | Postemergence herbicidal rating SETVI ([22]; Rate 0.0630 kg/ha)
7.5: Postemergence herbicidal rating GLXMAW ([15]; Rate 0.0315 kg/ha)
3.0: Herbicidal rating ECHORC ([10]; rate 0.1250 kg/ha) | Postemergence herbicidal rating GALAP ([14]; Rate 0.0158 kg/ha) | Herbicidal rating ECHORC ([18]; 0.1250 kg/ha) | Postemergence herbicidal rating ECHCG ([21]; Rate 0.0630 kg/ha)
5.0: Postemergence herbicidal rating ZEAMX ([4]; Rate 0.0158 kg/ha) | Postemergence herbicidal rating TRZAWR ([8]; Rate 0.0630 kg/ha) | Herbicidal rating ECHORC ([10]; rate 0.2500 kg/ha) | Herbicidal rating ECHORC ([18]; 0.2500 kg/ha)
2.5: Postemergence herbicidal rating ORYSAT ([12]; Rate 0.0630 kg/ha)
0.0: Herbicidal rating CYPIR ([3]; 0.0313 kg/ha) | Herbicidal rating CYPIR ([3]; 0.0625 kg/ha) | Herbicidal rating CYPIR ([3]; 0.1250 kg/ha) | Herbicidal rating CYPIR ([3]; 0.2500 kg/ha) | Herbicidal rating SAGPY ([5]; 0.0313 kg/ha) | Herbicidal rating SAGPY ([5]; 0.0625 kg/ha) | Herbicidal rating SAGPY ([5]; 0.1250 kg/ha) | Herbicidal rating SAGPY ([5]; 0.2500 kg/ha) | Herbicidal rating CYPIR ([9]; rate 0.0313 kg/ha) | Herbicidal rating CYPIR ([9]; rate 0.0625 kg/ha) | Herbicidal rating CYPIR ([9]; rate 0.1250 kg/ha) | Herbicidal rating CYPIR ([9]; rate 0.2500 kg/ha) | Herbicidal rating ECHORC ([10]; rate 0.0313 kg/ha) | Herbicidal rating ECHORC ([10]; rate 0.0625 kg/ha) | Herbicidal rating CYPSE ([11]; rate 0.0313 kg/ha) | Herbicidal rating CYPSE ([11]; rate 0.0625 kg/ha) | Herbicidal rating CYPSE ([11]; rate 0.1250 kg/ha) | Herbicidal rating CYPSE ([11]; rate 0.2500 kg/ha) | Herbicidal rating CYPSE ([16]; 0.0313 kg/ha) | Herbicidal rating CYPSE ([16]; 0.0625 kg/ha) | Herbicidal rating CYPSE ([16]; 0.1250 kg/ha) | Herbicidal rating CYPSE ([16]; 0.2500 kg/ha) | Herbicidal rating SAGPY ([17]; rate 0.0313 kg/ha) | Herbicidal rating SAGPY ([17]; rate 0.0625 kg/ha) | Herbicidal rating SAGPY ([17]; rate 0.1250 kg/ha) | Herbicidal rating SAGPY ([17]; rate 0.2500 kg/ha) | Herbicidal rating ECHORC ([18]; 0.0313 kg/ha) | Herbicidal rating ECHORC ([18]; 0.0625 kg/ha)
9.0: Postemergence herbicidal rating AMBEL ([1]; Rate 0.0158 kg/ha) | Postemergence herbicidal rating AMBEL ([1]; Rate 0.0315 kg/ha) | Postemergence herbicidal rating AMBEL ([1]; Rate 0.0630 kg/ha) | Herbicidal rating MOOVA ([2]; rate 0.1250 kg/ha) | Herbicidal rating MOOVA ([2]; rate 0.2500 kg/ha) | Postemergence herbicidal rating IPOHE ([6]; Rate 0.0158 kg/ha) | Postemergence herbicidal rating IPOHE ([6]; Rate 0.0315 kg/ha) | Postemergence herbicidal rating IPOHE ([6]; Rate 0.0630 kg/ha) | Postemergence herbicidal rating CHEAL ([7]; Rate 0.0158 kg/ha) | Postemergence herbicidal rating CHEAL ([7]; Rate 0.0315 kg/ha) | Postemergence herbicidal rating CHEAL ([7]; Rate 0.0630 kg/ha) | Postemergence herbicidal rating ABUTH ([13]; Rate 0.0158 kg/ha) | Postemergence herbicidal rating ABUTH ([13]; Rate 0.0315 kg/ha) | Postemergence herbicidal rating ABUTH ([13]; Rate 0.0630 kg/ha) | Postemergence herbicidal rating GALAP ([14]; Rate 0.0630 kg/ha) | Herbicidal rating MOOVA ([19]; 0.1250 kg/ha) | Herbicidal rating MOOVA ([19]; 0.2500 kg/ha) | Postemergence herbicidal rating CASOB ([20]; Rate 0.0630 kg/ha)
6.5: Postemergence herbicidal rating ZEAMX ([4]; Rate 0.0630 kg/ha)
4.5: Postemergence herbicidal rating TRZAWR ([8]; Rate 0.0315 kg/ha)
2.0: Postemergence herbicidal rating ORYSAT ([12]; Rate 0.0315 kg/ha) | Postemergence herbicidal rating ECHCG ([21]; Rate 0.0158 kg/ha) | Postemergence herbicidal rating ECHCG ([21]; Rate 0.0315 kg/ha)
